Source: patent publication US20230257372A1 (CHONG KUN DANG PHARMACEUTICAL CORP., priority 2020, published 2023)

Experiments:
human recombinant HDAC1 = target: T1, human recombinant HDAC1 (Homo sapiens, UniProt Q13547); experiment: HDAC1 enzyme activity inhibition (HDAC Fluorimetric Drug Discovery Kit); assay type: biochemical; details: human recombinant HDAC1, Fluor de Lys substrate, 30° C. 60 minutes; read-out: HDAC1
T1 construct: purchased Enzo Life Science, Inc. BML-SE456
Summary of the method: (§1)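 Fluorimetric deacetylase read-out. 5-fold compound dilutions; […] enzyme, 10 μM substrate; 30° C, 60 min; developer 30 min.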

human recombinant HDAC6 = target: T2, human recombinant HDAC6 (Homo sapiens, UniProt Q9UBN7); experiment: HDAC6 enzyme activity inhibition (HDAC Fluorimetric Drug Discovery Kit); assay type: biochemical; details: for HDAC6 selectivity (fold): HDAC6 over HDAC1; for IC50: human recombinant HDAC6, same protocol as HDAC1
T2 construct: purchased Calbiochem Inc. 382180
T2 sequence (Q9UBN7 1-1215): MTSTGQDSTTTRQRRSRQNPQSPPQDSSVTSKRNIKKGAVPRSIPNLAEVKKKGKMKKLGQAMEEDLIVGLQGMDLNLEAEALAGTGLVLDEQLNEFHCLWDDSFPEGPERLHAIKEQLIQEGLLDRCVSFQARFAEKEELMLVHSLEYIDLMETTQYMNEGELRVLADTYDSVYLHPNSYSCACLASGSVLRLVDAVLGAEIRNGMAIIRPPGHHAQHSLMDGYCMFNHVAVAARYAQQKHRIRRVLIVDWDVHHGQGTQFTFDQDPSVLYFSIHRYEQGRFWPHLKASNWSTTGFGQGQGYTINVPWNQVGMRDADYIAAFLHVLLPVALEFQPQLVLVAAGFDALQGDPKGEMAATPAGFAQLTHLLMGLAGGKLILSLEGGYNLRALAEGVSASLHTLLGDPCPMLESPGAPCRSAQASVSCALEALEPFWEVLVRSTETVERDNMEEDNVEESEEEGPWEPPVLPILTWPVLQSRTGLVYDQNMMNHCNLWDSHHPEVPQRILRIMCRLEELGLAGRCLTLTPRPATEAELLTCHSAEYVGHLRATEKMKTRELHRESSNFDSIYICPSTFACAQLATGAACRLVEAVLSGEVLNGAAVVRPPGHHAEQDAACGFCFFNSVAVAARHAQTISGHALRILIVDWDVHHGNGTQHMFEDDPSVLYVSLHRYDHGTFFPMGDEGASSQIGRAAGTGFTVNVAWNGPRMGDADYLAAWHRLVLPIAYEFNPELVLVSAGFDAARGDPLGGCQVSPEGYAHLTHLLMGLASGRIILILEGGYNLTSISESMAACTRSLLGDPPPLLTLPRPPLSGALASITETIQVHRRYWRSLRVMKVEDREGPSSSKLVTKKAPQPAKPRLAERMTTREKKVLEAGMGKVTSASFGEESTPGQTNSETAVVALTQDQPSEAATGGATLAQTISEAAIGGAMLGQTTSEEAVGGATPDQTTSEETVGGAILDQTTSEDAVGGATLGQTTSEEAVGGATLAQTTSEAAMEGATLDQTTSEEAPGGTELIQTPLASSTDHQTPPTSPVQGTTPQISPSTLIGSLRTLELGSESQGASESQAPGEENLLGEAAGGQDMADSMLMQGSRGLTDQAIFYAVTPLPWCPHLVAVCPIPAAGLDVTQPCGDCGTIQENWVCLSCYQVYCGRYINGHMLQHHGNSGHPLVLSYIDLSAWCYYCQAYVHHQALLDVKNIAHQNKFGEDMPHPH
Summary of the method: as §1

T1 sequence (Q13547 whole entry): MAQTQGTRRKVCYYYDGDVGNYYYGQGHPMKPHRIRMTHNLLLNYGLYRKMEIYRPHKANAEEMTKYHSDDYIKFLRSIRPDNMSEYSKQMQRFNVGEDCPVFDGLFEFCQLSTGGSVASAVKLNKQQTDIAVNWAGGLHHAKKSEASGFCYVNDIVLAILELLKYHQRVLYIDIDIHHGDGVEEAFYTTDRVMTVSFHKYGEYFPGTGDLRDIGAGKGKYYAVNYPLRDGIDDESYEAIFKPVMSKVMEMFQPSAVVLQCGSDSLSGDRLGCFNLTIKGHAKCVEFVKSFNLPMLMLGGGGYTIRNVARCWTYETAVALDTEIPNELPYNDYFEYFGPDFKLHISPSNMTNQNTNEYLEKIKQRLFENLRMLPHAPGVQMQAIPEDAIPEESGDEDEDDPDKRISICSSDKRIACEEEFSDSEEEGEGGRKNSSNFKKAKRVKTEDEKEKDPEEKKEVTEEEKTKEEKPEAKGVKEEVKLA

| Structure (SMILES) | IC50 (human recombinant HDAC1) [nM] | HDAC6 selectivity (fold) (human recombinant HDAC6) | IC50 (human recombinant HDAC6) [nM] |
| --- | --- | --- | --- |
| Fc1cc(-c2nnc(C(F)F)o2)ccc1Cn1cc(-c2ccc(CN3CCC3)c(Cl)c2)nn1 [Compound 18712] | > 50000 | 1146 | 43.6 |
| Fc1cc(-c2nnc(C(F)F)o2)ccc1Cn1cc(-c2ccc(CN3CCCC3)c(Cl)c2)nn1 [Compound 18713, 2-(4-((4-(3-chloro-4-(pyrrolidin-1-ylmethyl)phenyl)-1H-1,2,3-triazol-1-yl)methyl)-3-fluorophenyl)-5-(difluoromethyl)-1,3,4-oxadiazole] | > 50000 | 685 | 72.9 |
| COc1cccc(-c2cn(Cc3ccc(-c4nnc(C(F)F)o4)cc3F)nn2)n1 [Compound 18736, 2-(difluoromethyl)-5-(3-fluoro-4-((4-(6-methoxypyridin-2-yl)-1H-1,2,3-triazol-1-yl)methyl)phenyl)-1,3,4-oxadiazole] | > 50000 | 622 | 80.3 |
| Fc1cc(-c2nnc(C(F)F)o2)cnc1Cn1cc(-c2ccccc2CN2CCC2)nn1 [Compound 18822, 2-(6-((4-(2-(azetidin-1-ylmethyl)phenyl)-1H-1,2,3-triazol-1-yl)methyl)-5-fluoropyridin-3-yl)-5-(difluoromethyl)-1,3,4-oxadiazole] | > 50000 | 98 | 505 |
| Fc1cc(-c2nnc(C(F)F)o2)cnc1Cn1cc(-c2ccccc2CN2CCCC2)nn1 [Compound 18823] | > 50000 | 131 | 380 |
| CC(C)(C)OC(=O)N1CCC(c2cccc(-c3cn(Cc4ncc(-c5nnc(C(F)F)o5)cc4F)nn3)c2)CC1 [Compound 18868, tert-butyl 4-(3-(1-((5-(5-(difluoromethyl)-1,3,4-oxadiazol-2-yl)-3-fluoropyridin-2-yl)methyl)-1H-1,2,3-triazol-4-yl)phenyl)piperidin-1-carboxylate] | > 50000 | 90 | 551 |
| CN1CCC(c2cccc(-c3cn(Cc4ncc(-c5nnc(C(F)F)o5)cc4F)nn3)c2)CC1 [Compound 18869, 2-(difluoromethyl)-5-(5-fluoro-6-((4-(3-(1-methylpiperidin-4-yl)phenyl)-1H-1,2,3-triazol-1-yl)methyl)pyridin-3-yl)-1,3,4-oxadiazole] | > 50000 | 1075 | 46.5 |
| Fc1cc(-c2nnc(C(F)F)o2)cnc1Cn1cc(-c2cccc(C3CCN(C4CCC4)CC3)c2)nn1 [Compound 18870, 2-(6-((4-(3-(1-cyclobutylpiperidin-4-yl)phenyl)-1H-1,2,3-triazol-1-yl)methyl)-5-fluoropyridin-3-yl)-5-(difluoromethyl)-1,3,4-oxadiazole] | > 50000 | 1123 | 44.5 |
| Fc1cc(-c2nnc(C(F)F)o2)cnc1Cn1cc(-c2cccc(C3CCN(C4COC4)CC3)c2)nn1 [Compound 18871, 2-(difluoromethyl)-5-(5-fluoro-6-((4-(3-(1-(oxetan-3-yl)piperidin-4-yl)phenyl)-1H-1,2,3-triazol-1-yl)methyl)pyridin-3-yl)-1,3,4-oxadiazole] | > 50000 | 675 | 74 |
| CC(C)(C)OC(=O)N1CC(N2CCC(c3cccc(-c4cn(Cc5ncc(-c6nnc(C(F)F)o6)cc5F)nn4)c3)CC2)C1 [Compound 18872, tert-butyl 3-(4-(3-(1-((5-(5-(difluoromethyl)-1,3,4-oxadiazol-2-yl)-3-fluoropyridin-2-yl)methyl)-1H-1,2,3-triazol-4-yl)phenyl)piperidin-1-yl)azetidin-1-carboxylate] | > 50000 | 167 | 299 |
| CN1CC(N2CCC(c3cccc(-c4cn(Cc5ncc(-c6nnc(C(F)F)o6)cc5F)nn4)c3)CC2)C1 [Compound 18877, 2-(difluoromethyl)-5-(5-fluoro-6-((4-(3-(1-(1-methylazetidin-3-yl)piperidin-4-yl)phenyl)-1H-1,2,3-triazol-1-yl)methyl)pyridin-3-yl)-1,3,4-oxadiazole] | > 50000 | 367 | 136 |
| Fc1cc(-c2nnc(C(F)F)o2)cnc1Cn1cc(-c2cccc(C3CCN(C4CN(C5CCC5)C4)CC3)c2)nn1 [Compound 18878] | > 50000 | 429 | 116 |
| Fc1cc(-c2nnc(C(F)F)o2)cnc1Cn1cc(-c2cncc(CN3CCC3)c2)nn1 [Compound 18882, 2-(6-((4-(5-(azetidin-1-ylmethyl)pyridin-3-yl)-1H-1,2,3-triazol-1-yl)methyl)-5-fluoropyridin-3-yl)-5-(difluoromethyl)-1,3,4-oxadiazole] | > 50000 | 306 | 163 |
| C[C@@H]1CN(c2cccc(-c3cn(Cc4ncc(-c5nnc(C(F)F)o5)cc4F)nn3)c2)C[C@H](C)N1 [Compound 18893, 2-(difluoromethyl)-5-(6-((4-(3-((3R,5S)-3,5-dimethylpiperazin-1-yl)phenyl)-1H-1,2,3-triazol-1-yl)methyl)-5-fluoropyridin-3-yl)-1,3,4-oxadiazole] | > 50000 | 388 | 129 |
| Fc1cc(-c2nnc(C(F)F)o2)cnc1Cn1cc(-c2ccc3cc[nH]c3c2)nn1 [Compound 18918, 2-(6-((4-(1H-indol-6-yl)-1H-1,2,3-triazol-1-yl)methyl)-5-fluoropyridin-3-yl)-5-(difluoromethyl)-1,3,4-oxadiazole] | > 50000 | 1089 | 45.9 |
| Fc1cc(-c2nnc(C(F)F)o2)cnc1Cn1cc(-c2ccc3cn[nH]c3c2)nn1 [Compound 18919, 2-(6-((4-(1H-indazol-6-yl)-1H-1,2,3-triazol-1-yl)methyl)-5-fluoropyridin-3-yl)-5-(difluoromethyl)-1,3,4-oxadiazole] | > 50000 | 830 | 60.2 |
| Fc1cc(-c2nnc(C(F)F)o2)cnc1Cn1cc(-c2ccc3[nH]ncc3c2)nn1 [Compound 18920, 2-(6-((4-(1H-indazol-5-yl)-1H-1,2,3-triazol-1-yl)methyl)-5-fluoropyridin-3-yl)-5-(difluoromethyl)-1,3,4-oxadiazole] | > 50000 | 1190 | 42 |
| Fc1cc(-c2nnc(C(F)F)o2)cnc1Cn1cc(-c2cccc3[nH]ccc23)nn1 [Compound 18921, 2-(6-((4-(1H-indol-4-yl)-1H-1,2,3-triazol-1-yl)methyl)-5-fluoropyridin-3-yl)-5-(difluoromethyl)-1,3,4-oxadiazole] | > 50000 | 1592 | 31.4 |
| CN1CCN(c2cccc(-c3cn(Cc4ncc(-c5nnc(C(F)F)o5)cc4F)nn3)c2)CC1 [Compound 18924, 2-(difluoromethyl)-5-(5-fluoro-6-((4-(3-(4-methylpiperazin-1-yl)phenyl)-1H-1,2,3-triazol-1-yl)methyl)pyridin-3-yl)-1,3,4-oxadiazole] | > 50000 | 625 | 80 |
| CC(C)N1CCN(c2cccc(-c3cn(Cc4ncc(-c5nnc(C(F)F)o5)cc4F)nn3)c2)CC1 [Compound 18926] | > 50000 | 782 | 63.9 |
